The results in this text go back to ChEMBL document CHEMBL1833808, “Identification of novel BRAF kinase inhibitors with structure-based virtual screening” (Bioorg Med Chem Lett, 2011).

SMILES strings stand for the structures.

The target in this experiment is Serine/threonine-protein kinase B-raf (Homo sapiens, UniProt P15056). In words: Inhibition of BRAF.
Serine/threonine-protein kinase B-raf, sequence (P15056 whole entry): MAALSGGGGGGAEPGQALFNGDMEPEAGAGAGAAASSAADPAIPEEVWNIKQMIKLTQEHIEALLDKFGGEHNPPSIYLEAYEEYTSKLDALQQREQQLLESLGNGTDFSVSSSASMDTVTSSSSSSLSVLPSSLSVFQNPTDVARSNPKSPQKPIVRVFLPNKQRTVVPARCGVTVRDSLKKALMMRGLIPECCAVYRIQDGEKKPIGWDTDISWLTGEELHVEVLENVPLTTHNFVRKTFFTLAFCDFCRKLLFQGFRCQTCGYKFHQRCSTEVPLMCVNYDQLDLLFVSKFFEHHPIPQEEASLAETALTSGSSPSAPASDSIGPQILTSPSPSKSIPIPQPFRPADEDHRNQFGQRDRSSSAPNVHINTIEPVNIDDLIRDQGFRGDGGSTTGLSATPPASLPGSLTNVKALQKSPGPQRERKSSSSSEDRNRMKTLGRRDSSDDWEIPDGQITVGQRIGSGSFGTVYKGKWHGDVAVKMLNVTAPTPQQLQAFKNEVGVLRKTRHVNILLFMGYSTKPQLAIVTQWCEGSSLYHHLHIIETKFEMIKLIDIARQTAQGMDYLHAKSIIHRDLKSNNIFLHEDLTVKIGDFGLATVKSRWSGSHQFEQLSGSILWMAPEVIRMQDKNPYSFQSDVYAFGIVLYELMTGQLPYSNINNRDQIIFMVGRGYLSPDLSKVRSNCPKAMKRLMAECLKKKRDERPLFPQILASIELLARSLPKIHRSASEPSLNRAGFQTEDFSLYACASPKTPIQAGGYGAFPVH

For the compound `NC(=O)c1ccc(Nc2nnc(-c3ccc(O)cc3)c3ccccc23)cc1`, the Kd (in general, the free concentration of one partner at which half of the binding sites on the other are occupied at equilibrium, for simple one-to-one binding) is 2.1 µM. The same measure for `CCOC(=O)c1cccc(Nc2nc(N)nc3[nH]cnc23)c1`: 0.7 µM; for `Cc1ccc(/C=C/c2nc(N)nc(-c3ccccc3O)n2)o1`: 20 µM. The same measure for `O=C1N/C(=N\c2ccc(O)cc2)S/C1=C\c1c[nH]c2ccccc12`: 18.5 µM; for `Cc1ccc(CNC(=O)c2c(N)n(-c3cccc(O)c3)c3nc4ccccc4nc23)cc1`: 12.6 µM.
